Data from patent US8309739B2, “Chemical compounds” (Syngenta Limited, priority 2005, dated 2012).
Where two headings read alike, the source gives them in different places.

Columns and labels:
[1] = test system: Heliothis virescens (Tobacco Budworm); assay: Heliothis virescens egg/larva test on artificial diet in 24-well microtiter plate; assay type: in vivo; settings: 96 h, 200 ppm by pipetting on eggs (0-24 h old) on artificial diet, 4 days, egg mortality, larval mortality, growth regulation
Text: Heliothis virescens (Tobacco Budworm):

[2] = test system: Myzus persicae (Green Peach Aphid); assay: Myzus persicae test, roots of infested pea seedlings placed in test solution; assay type: in vivo; settings: 144 h, read-out: control of Myzus persicae
Text: Myzus persicae (Green Peach Aphid):
Roots of pea seedlings, infested with an aphid population of mixed ages, were placed directly in the test solutions of 24 ppm. 6 days after introduction, samples were checked for mortality.

[3] = roots of infested pea seedlings in test solutions of 24 ppm, 6 days, mortality

| SMILES | pest or weed control at 200 ppm [1] [%] | melting point [°C] | further results |
| --- | --- | --- | --- |
| Fc1cc(F)c2c(c1)C(NC1=NCCS1)CC2 (stereo not shown) [Compound 2.024] | ≥ 80 |  | pest or weed control at 24 ppm [2, 3]: ≥ 80% |
| Fc1cc(Br)cc2c1CCC2NC1=NCCS1 (stereo not shown) [Compound 2.026] | ≥ 80 |  |  |
| CC(=O)N(C(C)=O)N(C1=NCCS1)C1CCc2ccccc21 (stereo not shown) [Compound 7.004] |  | 91 to 92 |  |
| c1ccc(Oc2cccc3c2CCC3NC2=NCCS2)cc1 (stereo not shown) [Compound 2.041] |  | 143 to 146 |  |
| CCc1cc(F)c2c(c1)C(NC1=NCCS1)CC2 (stereo not shown) |  | 148 to 149 |  |
| Fc1ccc2c(c1F)CCC2NC1=NCCS1 (stereo not shown) |  | 161 |  |
| COc1cc2c(cc1C)CCC2NC1=NCCS1 (stereo not shown) |  | 152 to 153 |  |
| Fc1ccc2c(c1)CCC2NC1=NCCS1 (stereo not shown) |  | 136 |  |
| CCC(=O)N1CCS/C1=N\C1CCc2ccccc21 (stereo not shown) [Compound 10.011] | ≥ 80 |  | pest or weed control at 24 ppm [2, 3]: ≥ 80% |
| ON(C1=NCCS1)C1CCc2c(Cl)cccc21 (stereo not shown) [Compound 7.001] |  | 115 to 117 |  |
| Cc1cccc2c1CCC2NC1=NCCS1 (stereo not shown) [Compound 2.006, (4,5-Dihydro-thiazol-2-yl)-(4-methyl-indan-1-yl)-amine] |  |  | pest or weed control at 24 ppm [2]: ≥ 80% |
| Fc1c(F)c(F)c2c(c1F)CCC2NC1=NCCS1 (stereo not shown) |  | 165 |  |
| Fc1cccc2c1CCC2NC1=NCCS1 (stereo not shown) [Compound 2.019] | ≥ 80 |  | pest or weed control at 24 ppm [2, 3]: ≥ 80% |
| Cc1cc(F)c2c(c1)C(NC1=NCCS1)CC2 (stereo not shown) [Compound 2.031] | ≥ 80 |  | pest or weed control at 24 ppm [2, 3]: ≥ 80% |
| COC(=O)N1CCS/C1=N\C1CCc2ccccc21 (stereo not shown) [Compound 10.015] | ≥ 80 |  | pest or weed control at 24 ppm [2, 3]: ≥ 80% |
| NN(C1=NCCS1)C1CCc2ccccc21 (stereo not shown) [Compound 7.013] |  | 103 to 105 |  |
| Fc1cccc2c1CC(F)C2NC1=NCCS1 (stereo not shown) [Compound 2.067] | ≥ 80 |  | pest or weed control at 24 ppm [2, 3]: ≥ 80% |
| COC(=O)c1cccc2c1CCC2NC1=NCCS1 (stereo not shown) |  | 131 |  |
| O=Cc1cccc2c1CCC2NC1=NCCS1 (stereo not shown) |  | 142 to 143 |  |
| Ic1cccc2c1CCC2NC1=NCCS1 (stereo not shown) |  | 170 to 171 |  |

| SMILES | pest or weed control at 200 ppm [1] [%] | melting point [°C] | further results |
| --- | --- | --- | --- |
| FC(F)c1cccc2c1CCC2NC1=NCCS1 (stereo not shown) [Compound 2.058] | ≥ 80 |  | pest or weed control at 24 ppm [2, 3]: ≥ 80% |
| O=[N+]([O-])c1cccc2c1CCC2NC1=NCCS1 (stereo not shown) [Compound 2.042] |  | 144 to 145 |  |
| CCOC(=O)N1CCS/C1=N\C1CCc2ccccc21 (stereo not shown) [Compound 10.020] | ≥ 80 |  |  |
| CC(=O)N1CCS/C1=N\C1CCc2ccccc21 (stereo not shown) [Compound 10.025] | ≥ 80 |  |  |
| Fc1cccc2c1C(NC1=NCCS1)CC2 (stereo not shown) [Compound 2.052] | ≥ 80 |  |  |
| Clc1cccc2c1CCC2NC1=NCCS1 (stereo not shown) [Compound 2.020] | ≥ 80 |  |  |
| Oc1cccc2c1CCC2NC1=NCCS1 (stereo not shown) |  | 191 |  |
| Cc1ccc2c(c1)C(NC1=NCCS1)CC2 (stereo not shown) |  | 181 |  |
| N#CN1CCSC1=NC1CCc2ccccc21 (stereo not shown) [Compound 8.017, 2-(Indan-1-ylimino)-thiazolidine-3-carbonitrile] | ≥ 80 |  |  |
| Brc1ccc2c(c1)C(NC1=NCCS1)CC2 (stereo not shown) [Compound 2.049] | ≥ 80 |  |  |
| ON(C1=NCCS1)C1CCc2c(F)cccc21 (stereo not shown) [Compound 7.006] |  |  | pest or weed control at 24 ppm [2, 3]: ≥ 80% |
| CC(=O)OC1Cc2ccccc2C1NC1=NCCS1 (stereo not shown) [Compound 12.008] | ≥ 80 |  |  |
| Cc1cccc2c1CCC2N(O)C1=NCCS1 (stereo not shown) [Compound 7.010] | ≥ 80 |  |  |
| CC1(C)CC(NC2=NCCS2)c2ccccc21 (stereo not shown) |  | 60 to 66 |  |
| CC(C)(C)OC(=O)NN(C1=NCCS1)C1CCc2ccccc21 (stereo not shown) [Compound 7.002] |  | 63 to 64 |  |
| Fc1cc2c(c(F)c1F)CCC2NC1=NCCS1 (stereo not shown) [Compound 2.028] | ≥ 80 |  |  |
| Fc1cc(F)c2c(c1F)C(NC1=NCCS1)CC2 (stereo not shown) [Compound 2.030] | ≥ 80 |  | pest or weed control at 24 ppm [2, 3]: ≥ 80% |
| CC(C)C(=O)N1CCS/C1=N\C1CCc2ccccc21 (stereo not shown) [Compound 10.006] |  |  | pest or weed control at 24 ppm [2, 3]: ≥ 80% |
| CCCC1(CCC)Cc2ccccc2C1NC1=NCCS1 (stereo not shown) [Compound 2.034] |  | 101 to 103 |  |
| Fc1ccc(F)c2c1CCC2NC1=NCCS1 (stereo not shown) [Compound 2.025] | ≥ 80 |  | pest or weed control at 24 ppm [2, 3]: ≥ 80% |
